Test results published in patent US10246446B2, “Blockers of the growth hormone receptor in disease prevention and treatment” (UNIVERSITY OF SOUTHERN CALIFORNIA, priority 2015, dated 2019).

Key:
Type in all cases: cell-based
[1] = target: T1, human GHR (Homo sapiens, UniProt P10912); experiment: c-fos reporter luciferase assay, GH-stimulated cells; conditions: for GH induced increase in c-fos reporter activity: FIG. 5A; for c-fos reporter activity, % of untreated controls: cells serum starved, incubated with test compound (10 μM), treated with GH, normalized to renilla luciferase
T1 construct: expressed in transfected cells; HEK293 according to the assay procedure
T1 sequence (P10912 19-638): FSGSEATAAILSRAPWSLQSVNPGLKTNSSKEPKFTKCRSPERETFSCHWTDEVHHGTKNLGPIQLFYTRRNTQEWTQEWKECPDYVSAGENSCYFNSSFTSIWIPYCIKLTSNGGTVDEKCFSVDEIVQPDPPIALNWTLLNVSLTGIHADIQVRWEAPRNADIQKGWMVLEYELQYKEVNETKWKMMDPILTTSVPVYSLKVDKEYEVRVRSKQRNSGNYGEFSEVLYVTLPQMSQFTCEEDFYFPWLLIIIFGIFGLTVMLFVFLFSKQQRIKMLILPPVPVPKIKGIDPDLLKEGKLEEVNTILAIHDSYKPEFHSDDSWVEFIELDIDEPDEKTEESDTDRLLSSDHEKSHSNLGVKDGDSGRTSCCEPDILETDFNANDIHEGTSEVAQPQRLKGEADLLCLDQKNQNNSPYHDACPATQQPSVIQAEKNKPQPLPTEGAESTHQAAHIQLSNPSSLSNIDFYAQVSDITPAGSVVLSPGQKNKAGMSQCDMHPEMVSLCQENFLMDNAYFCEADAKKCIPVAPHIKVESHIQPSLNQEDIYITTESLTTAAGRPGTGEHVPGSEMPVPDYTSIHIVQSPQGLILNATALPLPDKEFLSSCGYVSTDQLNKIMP
Description: (§1) FIG. 5A. Lead compounds (#34, 37, 38) identified by luciferase reporter assays. Mouse L cells expressing human GHR were transfected with c-fos or SOCS2 reporter luciferase plasmids. Cells were serum starved, incubated with test compounds (#34, 37, 38) and then treated with GH. Data are normalized to co-transfected CMV-driven renilla luciferase and expressed as relative light units (RLU). (A) c-fos reporter luciferase activity.
(§2) In order to perform high throughput screening (HTS) for inhibitors of GHR, HEK293 cell lines permanently transfected were established with a luciferase reporter driven by either c-fos or SOCS2 promoter (FIG. 7).
(§3) The SOCS (Suppressor of Cytokine Signaling) proteins are induced by GH and act as negative regulators of cytokine signaling pathways. […] Luciferase reporter constructs where the luciferase gene is under the control of promoters of either SOCS2 or c-fos have been stably transfected into human embryonic kidney, HEK293 cells. Cells were serum starved (0.5% FBS) for 24 hours to prevent interference by other growth factors and then treated with 5 or 10 nM hGH (established in dose response studies) and 10 μM of each test compound for 24 hours. This is followed by lysis and analysis of luciferase activity using the luciferase reporter assay (Promega). Each compound is tested in triplicate in a 96 well plate format.

[2] = target: T1, human GHR; experiment: SOCS2 reporter luciferase assay, GH-stimulated cells; conditions: for GH induced increase in SOCS2 reporter activity: FIG. 5B; for SOCS2 reporter activity, % of untreated controls: cells serum starved, incubated with test compound (10 μM), treated with GH, normalized to renilla luciferase
Description: as §1, with “5B.” for “5A.”, “starved, then” for “starved,”, “before GH treatment.” for “and then treated with GH.”, “were” for “are”, “(B) SOCS2” for “(A) c-fos”
FIG. 7. High throughput screening (HTS) platform for the identification of GHR inhibitors. Mouse L cells expressing human GHR were transfected with SOCS2 reporter luciferase plasmids. Cells were serum starved, pre-treated with test compounds (numbered as shown) and then GH. Data are normalized to CMV renilla luciferase and expressed as relative light units (RLU).
as §2, §3

[3] = system: human GHR; experiment: STAT5 phosphorylation assay (western blot), small molecules; conditions: mouse L cells expressing human GHR; compound 30 min prior to 5 nM hGH; FIG. 6
Description: FIG. 6. […] (A) Mouse L cells were incubated in 0.5% serum for 24 hours. Cells were treated with compounds 34, 37 or 38 for 30 min prior to 5 nM hGH treatment. The growth hormone antagonist (GHA) was used as a positive control.
The JAK/STAT signaling pathway is the principal signaling mechanism for a variety of growth factors and cytokines. In the growth hormone signaling pathway, dimerization of the GHR in response to GH binding leads to the activation of JAK by transphosphorylation. Activated JAK phosphorylates STAT5, which can then enter the nucleus and activate transcription of target genes. Inhibition of STAT5 phosphorylation will be used to analyze GHR antagonistic properties of the test compounds.
Mouse L fibroblasts engineered to express […] were obtained from Dr. John Kopchick. Serum starved L cells (0.5% FBS for 24 hours) were pre-treated for 30 minutes with 10 μM of each compound identified as a hit from the luciferase assays. Following this, cells were treated with 5 or 10 nM hGH for 10 minutes. Cells were collected and processed for western blotting with phospho-STAT5 and total STAT5 antibodies (Cell Signaling). The GHR antagonist, G120K is used as a positive control. Band intensity was analyzed using ImageJ and STAT5 phosphorylation normalized to total STAT5 levels. Compounds that inhibited STAT5 phosphorylation were selected for further drug optimization.

GH induced increase in c-fos reporter activity [1] | c-fos reporter activity, % of untreated controls [1] | GH induced increase in SOCS2 reporter activity [2] | SOCS2 reporter activity, % of untreated controls [2] | SMILES | GH induced phosphorylation of STAT5 [3]
inhibited | 27% | inhibited | 61% | CNS(=O)(=O)c1cc(NC(=O)c2ccc(CSc3ccccc3)o2)ccc1C [Compound 37] | able to inhibit phosphorylation of STAT5
inhibited | 57% | inhibited | 76% | O=C(Nc1cccc(S(=O)(=O)N2CCCCCC2)c1)c1ccco1 [Compound 34] | able to inhibit phosphorylation of STAT5
